Laboratory results published in patent US4937235A, “3- or 4-substituted oxotremorine derivatives” (American Cyanamid Company, priority 1989, dated 1990).
Where a name gives a salt, the structure may show the parent alone.

How the values were obtained:
aged monkey = conditions: aged monkeys; cited from earlier work
[1] = target: muscarinic cholinergic receptor; assay: [3H]-Cis-methyldioxolane (3H-CD) Binding Assay (High Affinity); conditions: rat cerebral cortex, 1.0 nM 3H-CD, 25° C., 120 minutes, pH 7.4
[2] = target: muscarinic cholinergic receptor; assay: [3H] Quinuclidinyl Benzilate (3H-QNB) Binding Assay; design: species or system rat; conditions: pH 7.4
SDAT patients = conditions: cited from earlier work

Compound | improvement in performance (aged monkey) | IC50 [1] [µM] | IC50 [2] [µM] | improvement compared to physostigmine (SDAT patients)
O=C1CCCN1CC#CCN1CCCC1 [oxotremorine] | significant improvement in performance |  |  | 
O=C1[C@@H](S)CCN1CC#CCN1CCCC1 [(S)-3-Mercapto-1-[4-(1-pyrrolidinyl)-2-butynyl]-2-pyrrolidinone, monohydrochloride] |  | 0.048 | 2 | 
O=C1[C@@H](O)CCN1CC#CCN1CCCC1 [(S)-3-Hydroxy-1-[4-(1-pyrrolidinyl)-2-butynyl]-2-pyrrolidinone] |  | 0.009 | 11 | 
COC(=O)C1=CCCN(C)C1 [arecoline] | significant improvement in performance |  |  | more-consistent improvement when compared to the anticholinesterase inhibitor physostigmine
CC(=O)S[C@H]1CCN(CC#CCN2CCCCC2)C1=O [(S)-S-[2-Oxo-1-[4-(1-piperidinyl)-2-butynyl]-3-pyrrolidinyl]ethanethioic acid ester] |  | 2.43 | 14 | 
CO[C@@H]1CCN(CC#CCN2CCCCC2)C1=O [(R)-3-Methoxy-1-[4-(1-piperidinyl)-2-butynyl]-2-pyrrolidinone] |  | 28.1 | 459 | 
CO[C@@H]1CCN(CC#CCN2CCCC2)C1=O [(R)-3-Methoxy-1-[4-(1-pyrrolidinyl)-2-butynyl]-2-pyrrolidinone] |  | 1.97 | 283 | 
O=C1[C@H](O)CCN1CC#CCN1CCCC1 [(R)-3-Hydroxy-1-[4-(1-pyrrolidinyl)-2-butynyl]-2-pyrrolidinone] |  | 0.134 | 47 | 
CN(C)CC#CCN1C[C@H](O)CC1=O [(R)-1-[4-(Dimethylamino)-2-butynyl]-4-hydroxy-2-pyrrolidinone] |  | 0.578 | 2350 | 
O=C1[C@@H](S)CCN1CC#CCN1CCCCC1 [(S)-3-Mercapto-1-[4-(1-piperidinyl)-2-butynyl]-2-pyrrolidinone, monohydrochloride] |  | 0.955 | 2.5 | 
CN(C)CC#CCN1CC[C@@H](S)C1=O [(R)-1-[4-(Dimethylamino)-2-butynyl]-3-mercapto-2-pyrrolidinone, monohydrochloride] |  | 0.076 | 31 | 
CN(C)CC#CCN1C[C@@H](O)CC1=O |  | 10.1 | 1510 | 
CC(=O)O[C@H]1CCN(CC#CCN(C)C)C1=O [(S)-3-(Acetyloxy)-1-[4-(dimethylamino)-2-butynyl]-2-pyrrolidinone] |  | 0.521 | 1360 | 
